Source: ChEMBL document CHEMBL1201862, “PubChem BioAssay data set” (2004)
Activity calls are given as the source filed them.

Tests used:
Format in all cases: functional
Caspase-3 = target: T1, Caspase-3 (Homo sapiens, UniProt P42574);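 note: Dose-response selectivity test against caspase-3 for candidate inhibitors of sentrin-specific proteases (SENPs)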
T1 sequence (P42574 whole entry): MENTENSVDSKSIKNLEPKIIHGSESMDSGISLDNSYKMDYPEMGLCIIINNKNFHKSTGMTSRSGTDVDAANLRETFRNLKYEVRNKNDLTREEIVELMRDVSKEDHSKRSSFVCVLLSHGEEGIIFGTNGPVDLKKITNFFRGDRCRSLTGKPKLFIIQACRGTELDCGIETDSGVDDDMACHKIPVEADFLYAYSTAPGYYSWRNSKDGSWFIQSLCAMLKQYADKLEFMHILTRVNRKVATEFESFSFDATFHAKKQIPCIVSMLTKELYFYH

[1] = target: T2, Sentrin-specific protease 6 (Homo sapiens, UniProt Q9GZR1);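 note: Luminescence-based dose-response confirmatory assay of SENP6 inhibition, following up an ultra-high-throughput screen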
T2 sequence (Q9GZR1 whole entry): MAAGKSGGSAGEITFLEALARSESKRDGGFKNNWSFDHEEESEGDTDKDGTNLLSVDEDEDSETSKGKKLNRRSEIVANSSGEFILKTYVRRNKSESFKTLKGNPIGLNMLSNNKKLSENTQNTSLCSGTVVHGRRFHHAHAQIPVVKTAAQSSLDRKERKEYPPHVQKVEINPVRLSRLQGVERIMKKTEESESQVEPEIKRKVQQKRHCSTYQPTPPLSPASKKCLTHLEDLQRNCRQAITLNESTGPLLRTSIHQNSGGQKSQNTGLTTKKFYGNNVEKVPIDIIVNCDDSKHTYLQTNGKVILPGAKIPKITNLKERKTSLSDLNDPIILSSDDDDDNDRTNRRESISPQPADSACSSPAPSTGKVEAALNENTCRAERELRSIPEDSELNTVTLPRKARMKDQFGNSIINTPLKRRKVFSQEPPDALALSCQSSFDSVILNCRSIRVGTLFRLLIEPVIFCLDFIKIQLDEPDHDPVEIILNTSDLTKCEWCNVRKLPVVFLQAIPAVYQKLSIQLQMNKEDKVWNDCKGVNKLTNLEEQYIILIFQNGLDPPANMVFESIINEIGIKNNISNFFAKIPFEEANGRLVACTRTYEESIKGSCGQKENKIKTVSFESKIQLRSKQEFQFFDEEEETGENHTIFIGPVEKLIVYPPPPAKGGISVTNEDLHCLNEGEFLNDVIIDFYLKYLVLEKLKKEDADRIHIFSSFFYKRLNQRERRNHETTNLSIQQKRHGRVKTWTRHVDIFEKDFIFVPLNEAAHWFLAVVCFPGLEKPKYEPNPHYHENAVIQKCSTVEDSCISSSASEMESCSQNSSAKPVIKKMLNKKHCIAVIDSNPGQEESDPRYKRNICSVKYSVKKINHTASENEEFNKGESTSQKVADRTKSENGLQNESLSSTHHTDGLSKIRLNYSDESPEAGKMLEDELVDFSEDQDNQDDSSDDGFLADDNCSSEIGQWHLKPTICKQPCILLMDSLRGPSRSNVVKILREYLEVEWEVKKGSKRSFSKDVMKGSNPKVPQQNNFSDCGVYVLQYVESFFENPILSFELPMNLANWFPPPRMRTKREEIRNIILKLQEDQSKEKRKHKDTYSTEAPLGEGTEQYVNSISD

Genome polyprotein = Genome polyprotein (dengue virus type 2, UniProt P29990); assay: flavivirus cap methylation enzyme inhibition – biochemical, confirmation dose response, primary screen (AID 588689)
[2] = target: Serine/threonine-protein kinase PAK 4 (Homo sapiens, UniProt O96013);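 note: value obtained within a kinome profiling panel in which PAK4 was one of the panel members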
[3] = target: Mitogen-activated protein kinase 14 (Homo sapiens, UniProt Q16539);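 note: part of a kinome-wide panel, MAPK14 entry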
[4] = target: Cyclin-dependent kinase 5 (Homo sapiens, UniProt Q00535);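 note: CDK5 measured as one member of a kinase profiling panel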
[5] = target: Glycogen synthase kinase-3 alpha (Homo sapiens, UniProt P49840);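 note: GSK3A result taken from a broad kinome-wide kinase panel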
[6] = target: Cyclin-dependent kinase 8 (Homo sapiens, UniProt P49336); assay: Navigating the Kinome. Panel member name: CDK8
[7] = target: Tyrosine-protein kinase Lck (Homo sapiens, UniProt P06239);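 note: lck was assayed as one member of a kinase panel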
[8] = target: Fibroblast growth factor receptor 1 (Homo sapiens, UniProt P11362)
[9] = target: Serine/threonine-protein kinase TBK1 (Homo sapiens, UniProt Q9UHD2); assay: Navigating the Kinome. Panel member name: TBK1
[10] = target: Glycogen synthase kinase-3 beta (Homo sapiens, UniProt P49841);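 note: value comes from a broad kinome profiling panel, with GSK3B as the panel member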
[11] = target: Inhibitor of nuclear factor kappa-B kinase subunit epsilon (Homo sapiens, UniProt Q14164); assay: Navigating the Kinome. Panel member name: IKBKE
[12] = target: Cyclin-dependent kinase 7 (Homo sapiens, UniProt P50613);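 note: value comes from a kinome-wide kinase profiling panel in which CDK7 is one member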
[13] = target: Cyclin-dependent kinase 9 (Homo sapiens, UniProt P50750);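 note: value from the CDK9 entry of a kinome-spanning kinase panel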
[14] = target: Protein kinase C theta type (Homo sapiens, UniProt Q04759); assay: Navigating the Kinome. Panel member name: PRKCQ
[15] = target: Mitogen-activated protein kinase kinase kinase kinase 2 (Homo sapiens, UniProt Q12851);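 note: measured as one member of a kinome-wide kinase panel, with MAP4K2 as the panel entry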
[16] = target: Macrophage colony-stimulating factor 1 receptor (Homo sapiens, UniProt P07333);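 note: value comes from the Navigating the Kinome screening panel, CSF1R member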
[17] = target: Mitogen-activated protein kinase 1 (Homo sapiens, UniProt P28482)
[18] = target: Calcium/calmodulin-dependent protein kinase type II subunit gamma (Homo sapiens, UniProt Q13555)
[19] = target: Testis-specific serine/threonine-protein kinase 2 (Homo sapiens, UniProt Q96PF2);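 note: part of the Navigating the Kinome panel, target entry STK22B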
[20] = target: Tyrosine-protein kinase FRK (Homo sapiens, UniProt P42685);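 note: FRK tested as one member of a kinome panel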
[21] = target: Mitogen-activated protein kinase kinase kinase 20 (Homo sapiens, UniProt Q9NYL2)
[22] = target: Serine/threonine-protein kinase PLK4 (Homo sapiens, UniProt O00444);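 note: PLK4 measured as one member of a kinome-wide kinase profiling panel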
[23] = target: MAP kinase-activated protein kinase 5 (Homo sapiens, UniProt Q8IW41);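 note: measured as one member of a kinome panel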
[24] = target: RAC-gamma serine/threonine-protein kinase (Homo sapiens, UniProt Q9Y243)
[25] = target: Serine/threonine-protein kinase 17A (Homo sapiens, UniProt Q9UEE5)

Chain of Cyclin-dependent kinase 7 (P50613 whole entry): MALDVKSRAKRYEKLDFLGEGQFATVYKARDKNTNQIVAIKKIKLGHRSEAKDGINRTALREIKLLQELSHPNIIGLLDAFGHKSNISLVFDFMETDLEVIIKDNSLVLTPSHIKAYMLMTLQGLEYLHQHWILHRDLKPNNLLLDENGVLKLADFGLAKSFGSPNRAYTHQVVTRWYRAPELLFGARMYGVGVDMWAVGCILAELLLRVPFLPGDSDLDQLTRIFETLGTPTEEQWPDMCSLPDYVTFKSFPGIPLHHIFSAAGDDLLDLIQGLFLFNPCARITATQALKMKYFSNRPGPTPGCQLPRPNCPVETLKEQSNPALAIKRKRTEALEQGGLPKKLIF
Chain of Cyclin-dependent kinase 9 (P50750 whole entry): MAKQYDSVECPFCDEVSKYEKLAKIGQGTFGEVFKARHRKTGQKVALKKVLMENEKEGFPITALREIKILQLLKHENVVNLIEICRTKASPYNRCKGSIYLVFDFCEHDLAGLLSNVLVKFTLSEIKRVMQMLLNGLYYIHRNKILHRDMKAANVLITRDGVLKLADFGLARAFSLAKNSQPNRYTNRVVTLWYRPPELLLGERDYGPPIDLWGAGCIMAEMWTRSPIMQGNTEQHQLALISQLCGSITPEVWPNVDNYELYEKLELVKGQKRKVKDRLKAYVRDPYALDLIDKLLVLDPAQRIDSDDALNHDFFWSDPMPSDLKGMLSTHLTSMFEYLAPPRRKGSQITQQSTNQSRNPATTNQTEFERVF
Chain of Calcium/calmodulin-dependent protein kinase type II subunit gamma (Q13555 whole entry): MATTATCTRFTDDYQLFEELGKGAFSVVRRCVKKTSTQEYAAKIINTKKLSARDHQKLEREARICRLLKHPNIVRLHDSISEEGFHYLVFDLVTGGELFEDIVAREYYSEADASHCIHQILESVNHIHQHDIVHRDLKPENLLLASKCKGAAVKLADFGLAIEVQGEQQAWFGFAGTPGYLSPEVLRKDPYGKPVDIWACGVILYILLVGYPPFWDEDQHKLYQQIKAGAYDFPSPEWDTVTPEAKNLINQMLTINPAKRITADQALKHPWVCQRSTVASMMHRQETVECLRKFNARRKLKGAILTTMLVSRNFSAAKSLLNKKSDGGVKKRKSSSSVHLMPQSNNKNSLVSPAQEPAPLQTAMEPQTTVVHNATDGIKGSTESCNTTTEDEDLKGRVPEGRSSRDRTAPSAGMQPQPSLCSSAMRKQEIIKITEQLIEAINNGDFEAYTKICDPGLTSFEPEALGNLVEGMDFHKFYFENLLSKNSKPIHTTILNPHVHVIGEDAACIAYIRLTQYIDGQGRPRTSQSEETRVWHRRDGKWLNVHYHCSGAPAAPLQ
Chain of Mitogen-activated protein kinase 14 (Q16539 whole entry): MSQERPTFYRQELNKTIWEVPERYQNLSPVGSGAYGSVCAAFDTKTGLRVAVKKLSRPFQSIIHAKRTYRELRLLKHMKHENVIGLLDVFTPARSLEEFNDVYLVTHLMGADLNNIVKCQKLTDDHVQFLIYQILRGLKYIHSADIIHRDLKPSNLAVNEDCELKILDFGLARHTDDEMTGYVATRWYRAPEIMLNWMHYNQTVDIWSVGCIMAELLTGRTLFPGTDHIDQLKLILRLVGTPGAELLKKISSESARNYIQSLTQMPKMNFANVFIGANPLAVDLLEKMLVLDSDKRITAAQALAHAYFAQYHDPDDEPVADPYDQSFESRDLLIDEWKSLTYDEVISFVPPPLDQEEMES
Chain of Glycogen synthase kinase-3 alpha (P49840 whole entry): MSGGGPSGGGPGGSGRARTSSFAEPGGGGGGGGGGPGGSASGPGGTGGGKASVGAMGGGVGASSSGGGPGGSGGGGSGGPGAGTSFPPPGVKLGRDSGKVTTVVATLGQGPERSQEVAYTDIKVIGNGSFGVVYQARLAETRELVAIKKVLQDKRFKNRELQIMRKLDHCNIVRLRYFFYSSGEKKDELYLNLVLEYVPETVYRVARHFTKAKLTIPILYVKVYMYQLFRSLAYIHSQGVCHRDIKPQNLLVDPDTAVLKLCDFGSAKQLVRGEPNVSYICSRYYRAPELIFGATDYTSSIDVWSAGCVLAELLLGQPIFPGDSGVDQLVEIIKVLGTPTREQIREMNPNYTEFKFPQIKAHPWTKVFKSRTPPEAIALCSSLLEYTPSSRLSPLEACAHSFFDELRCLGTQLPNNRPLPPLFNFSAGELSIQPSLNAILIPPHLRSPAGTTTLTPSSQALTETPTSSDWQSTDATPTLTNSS
Chain of Inhibitor of nuclear factor kappa-B kinase subunit epsilon (Q14164 whole entry): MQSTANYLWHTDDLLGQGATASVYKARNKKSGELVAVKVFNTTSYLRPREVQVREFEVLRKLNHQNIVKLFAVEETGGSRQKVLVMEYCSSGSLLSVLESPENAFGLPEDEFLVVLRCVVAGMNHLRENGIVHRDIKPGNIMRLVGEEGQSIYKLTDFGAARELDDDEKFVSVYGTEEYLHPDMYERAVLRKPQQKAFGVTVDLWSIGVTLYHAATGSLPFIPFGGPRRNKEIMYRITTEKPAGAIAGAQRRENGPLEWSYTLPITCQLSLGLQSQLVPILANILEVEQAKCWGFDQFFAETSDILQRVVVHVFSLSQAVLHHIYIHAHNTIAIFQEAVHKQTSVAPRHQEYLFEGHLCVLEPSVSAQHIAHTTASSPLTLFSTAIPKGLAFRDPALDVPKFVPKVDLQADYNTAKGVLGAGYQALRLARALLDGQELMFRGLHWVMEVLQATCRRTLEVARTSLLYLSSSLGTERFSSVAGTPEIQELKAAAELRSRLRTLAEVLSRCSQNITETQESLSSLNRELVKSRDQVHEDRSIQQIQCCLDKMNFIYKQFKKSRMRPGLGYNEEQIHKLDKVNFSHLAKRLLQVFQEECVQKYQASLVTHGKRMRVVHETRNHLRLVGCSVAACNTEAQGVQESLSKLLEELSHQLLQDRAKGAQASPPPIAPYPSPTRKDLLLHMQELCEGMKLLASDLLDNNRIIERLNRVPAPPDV
Chain of Fibroblast growth factor receptor 1 (P11362 whole entry): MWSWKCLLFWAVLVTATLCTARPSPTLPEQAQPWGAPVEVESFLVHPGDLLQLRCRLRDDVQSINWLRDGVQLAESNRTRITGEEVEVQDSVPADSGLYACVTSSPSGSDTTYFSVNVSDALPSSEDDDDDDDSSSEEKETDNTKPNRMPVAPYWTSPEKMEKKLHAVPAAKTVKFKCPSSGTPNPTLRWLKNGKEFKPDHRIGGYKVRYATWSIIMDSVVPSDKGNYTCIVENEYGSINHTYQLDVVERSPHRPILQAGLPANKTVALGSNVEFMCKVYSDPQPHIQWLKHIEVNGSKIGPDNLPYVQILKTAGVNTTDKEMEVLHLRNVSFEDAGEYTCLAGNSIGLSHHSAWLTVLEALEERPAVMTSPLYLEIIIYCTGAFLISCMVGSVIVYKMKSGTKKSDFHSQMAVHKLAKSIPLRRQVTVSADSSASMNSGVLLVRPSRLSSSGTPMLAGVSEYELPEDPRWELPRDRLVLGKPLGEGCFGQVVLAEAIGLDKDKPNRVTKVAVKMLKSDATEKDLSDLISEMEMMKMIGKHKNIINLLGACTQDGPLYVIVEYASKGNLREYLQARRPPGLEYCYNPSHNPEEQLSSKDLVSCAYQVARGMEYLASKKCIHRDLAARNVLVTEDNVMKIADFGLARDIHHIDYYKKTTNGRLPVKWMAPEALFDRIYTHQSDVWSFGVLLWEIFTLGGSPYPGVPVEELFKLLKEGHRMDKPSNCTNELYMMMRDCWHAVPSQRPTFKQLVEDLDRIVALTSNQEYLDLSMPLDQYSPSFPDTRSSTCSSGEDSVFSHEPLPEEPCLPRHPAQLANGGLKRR
Chain of Macrophage colony-stimulating factor 1 receptor (P07333 whole entry): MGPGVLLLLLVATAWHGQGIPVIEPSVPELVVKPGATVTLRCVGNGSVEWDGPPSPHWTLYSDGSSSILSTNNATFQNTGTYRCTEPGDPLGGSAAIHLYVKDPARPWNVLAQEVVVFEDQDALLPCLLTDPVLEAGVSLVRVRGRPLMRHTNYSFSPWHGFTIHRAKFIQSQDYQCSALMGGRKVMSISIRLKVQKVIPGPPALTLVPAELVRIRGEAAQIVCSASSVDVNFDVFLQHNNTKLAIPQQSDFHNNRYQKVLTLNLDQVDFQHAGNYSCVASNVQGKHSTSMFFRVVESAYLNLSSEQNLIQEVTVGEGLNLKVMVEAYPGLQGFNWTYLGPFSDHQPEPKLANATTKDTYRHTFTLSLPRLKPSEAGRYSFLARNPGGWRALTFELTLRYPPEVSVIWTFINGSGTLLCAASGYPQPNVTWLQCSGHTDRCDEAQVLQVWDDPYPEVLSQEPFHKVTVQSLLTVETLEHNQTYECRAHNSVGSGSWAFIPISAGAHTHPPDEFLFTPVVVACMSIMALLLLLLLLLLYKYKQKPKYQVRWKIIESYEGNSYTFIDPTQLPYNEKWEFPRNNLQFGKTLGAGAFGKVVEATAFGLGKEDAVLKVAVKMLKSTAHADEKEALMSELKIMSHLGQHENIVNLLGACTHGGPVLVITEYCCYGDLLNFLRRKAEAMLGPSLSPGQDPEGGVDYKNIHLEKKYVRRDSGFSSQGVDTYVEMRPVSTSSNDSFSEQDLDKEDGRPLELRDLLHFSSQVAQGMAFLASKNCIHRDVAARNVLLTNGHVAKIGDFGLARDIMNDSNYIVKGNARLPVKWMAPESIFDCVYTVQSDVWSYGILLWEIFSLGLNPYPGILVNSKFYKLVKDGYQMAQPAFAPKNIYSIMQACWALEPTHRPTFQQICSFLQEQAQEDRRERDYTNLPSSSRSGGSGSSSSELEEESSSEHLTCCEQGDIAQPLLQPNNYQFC
Chain of Cyclin-dependent kinase 5 (Q00535 whole entry): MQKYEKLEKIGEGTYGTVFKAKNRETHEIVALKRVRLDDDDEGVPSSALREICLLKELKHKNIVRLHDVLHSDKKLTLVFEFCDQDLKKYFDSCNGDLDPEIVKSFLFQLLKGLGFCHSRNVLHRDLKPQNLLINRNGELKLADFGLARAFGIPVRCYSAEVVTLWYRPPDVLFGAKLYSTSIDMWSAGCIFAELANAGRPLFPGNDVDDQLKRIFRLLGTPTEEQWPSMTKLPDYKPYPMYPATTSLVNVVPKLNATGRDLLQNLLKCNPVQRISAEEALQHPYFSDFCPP

Ki [2]	Ki [4]	Ki [5]	Ki [6]	Ki [7]	Ki [8]	Ki [9]	Ki [10]	Ki [11]	Ki [12]	Ki [13]	SMILES	IC50 (Caspase-3)	IC50 [1]	Ki [3]	Ki [14]	Ki [15]	Ki [16]	further results
											Cc1ccc(NC2=C(NCCO)C(=O)c3ccccc3C2=O)cc1	11.4 µM (active)	6.66 µM (active)					
											CC(/C=C1\SC(=S)N(NS(=O)(=O)c2ccc(C)cc2)C1=O)=C\c1ccccc1	12.9 µM (active)	3.12 µM (active)					IC50 (Genome polyprotein): 27.1 µM (active)
3.98 µM (active)	1 µM (active)	> 3.98 µM (inactive)	1 µM (active)	> 6.31 µM (inactive)	1.58 µM (active)	> 3.16 µM (inactive)	1.58 µM (active)	3.16 µM (active)	3.98 µM (active)	0.398 µM (active)	Cc1ccc(C)c(NC(=O)c2cc(-c3ccco3)nc3ccccc23)c1			> 3.98 µM (inactive)				
2 µM (active)	0.251 µM (active)	> 3.98 µM (inactive)	> 3.98 µM (inactive)	> 6.31 µM (inactive)	> 3.98 µM (inactive)	0.631 µM (active)	> 3.98 µM (inactive)	0.501 µM (active)	> 3.98 µM (inactive)	0.2 µM (active)	COc1ccc(C2=NNc3cccc4c(OC)ccc2c34)cc1OC				1.58 µM (active)	2 µM (active)	> 2.51 µM (inactive)	
											CN1CCC(c2c(O)cc(O)c3c(=O)cc(-c4ccccc4Cl)oc23)C(O)C1 (stereo not given)			3.98 µM (active)	0.0794 µM (active)	1 µM (active)	> 2.51 µM (inactive)	Ki [17]: > 7.94 µM (inactive); Ki [18]: 1 µM (active); pKi [18]: 6; Ki [19]: > 1.58 µM (inactive); Ki [20]: > 2.51 µM (inactive); Ki [21]: > 7.94 µM (inactive); Ki [22]: 3.16 µM (active); Ki [23]: > 1.58 µM (inactive); Ki [24]: > 10 µM (inactive); Ki [25]: > 3.98 µM (inactive)
